The record followed here is ChEMBL document CHEMBL3769332, “Affinity-Based Fluorescence Polarization Assay for High-Throughput Screening of Prolyl Hydroxylase 2 Inhibitors” (ACS Med Chem Lett, 2015).

The assay has as its target Egl nine homolog 1 (Homo sapiens, UniProt Q9GZT9).

Chain of Egl nine homolog 1 (Q9GZT9 whole entry): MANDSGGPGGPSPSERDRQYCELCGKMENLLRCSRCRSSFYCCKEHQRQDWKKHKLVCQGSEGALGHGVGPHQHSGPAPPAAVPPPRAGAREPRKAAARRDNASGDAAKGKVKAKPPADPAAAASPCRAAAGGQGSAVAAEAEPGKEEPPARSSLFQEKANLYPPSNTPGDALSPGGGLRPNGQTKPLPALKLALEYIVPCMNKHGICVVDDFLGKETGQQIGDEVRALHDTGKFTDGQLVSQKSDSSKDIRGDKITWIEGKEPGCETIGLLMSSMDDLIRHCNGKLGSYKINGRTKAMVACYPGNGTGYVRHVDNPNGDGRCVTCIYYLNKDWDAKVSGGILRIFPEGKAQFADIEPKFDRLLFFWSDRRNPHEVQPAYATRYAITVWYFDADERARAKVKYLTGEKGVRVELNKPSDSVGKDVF

By IC50 is commonly meant the concentration at which inhibition is half-maximal. Higher therefore signals a need for much substance. `Cc1ccc(-c2cnc(C(=O)NCC(=O)O)c(O)c2)cc1` yielded an IC50 of 890 nM.

`O=c1c(-n2ccnn2)c[nH]n1-c1cc(N2CCOCC2)ncn1` [MOLIDUSTAT] had an IC50 of 876 nM.
